Read-outs that look alike come from different tables or passages of the source.
Legend:
[1] = system: Formosan subterranean termites; type: in vivo, Coptotermes formosanus; settings: for termites killed: 25 mg/liter volume
Description: (§1) Formosan subterranean termites were collected from bucket traps placed in City Park, New Orleans, La. Altogether five colonies designated 1314, 1559, 1732, 1743 and 1756 were used in the tests. After collection, the termites (primarily workers and soldiers) were transferred to plastic boxes with moist spruce slats. The boxes were stored in an incubator maintained at 28° C., 65% RH, and constant darkness. Termites were used within one month of their collection.
(§2) Vapor Toxicity Under Subterranean Conditions. This test was also conducted in the one liter Qorpak™ bottles. A 35 by 40 by 7 mm piece of moist spruce was placed at the bottom of the bottle and covered with 40 g fine-sifted black soil. One hundred termite workers were released into each bottle and allowed to tunnel under the soil and into the wood. After 3 days, a test chemical was applied to a filter paper and suspended from the cap-liner. The chemicals were tested at 10, 25 and 50 mg. […] The test was conducted with termites from 3 colonies and replicated 3 times.
Because in their natural environment the subterranean termites are not expected to be exposed to a chemical in open space, we conducted the next test by placing 100 workers termites in spruce slats covered with a layer of soil, all placed in the same glass bottles. Tests were conducted at 25 mg dose. After 2 days tetrahydrocarvone (both d- and l-isomers) caused 100% mortality.

drywood termites = settings: Petri dish assays, as claimed in prior art; cited from earlier work
carpenter ants = assay: Sealed jar test on carpenter ants; type: in vivo, Camponotus chromaoides; settings: one drop (approximately 30 mg) on filter paper in sealed 16 oz jar, within 24 hours
Description: One drop (approximately 30 mg) of tetrahydro l-carvone test compound was applied to filter paper within a sealed jar (16 oz glass jar, 3½ inch diameter, 3⅞ inch high with plastic lids) containing ten carpenter (Camponotus chromaoides) ants per replicate with there being five replicates. Five negative controls with no test compounds were also run. The tetrahydro-1-carvone provided 100% mortality to the carpenter ants within 24 hours while the control produced 6% mortality over the same 24 hour period.

[2] = system: Formosan subterranean termites; assay: Assay for Vapor Toxicity; type: in vivo, Coptotermes formosanus
Description: as §1
Assay for Vapor Toxicity. This test was conducted in 960 ml wide-mouth clear Qorpak™ (All-Pak, Inc.) bottles with PTFE lined caps. A 60 mm diameter glass Petri dish with a moist filter paper and 50 termite workers was placed at the bottom of each bottle. The test chemical was applied to a 1 cm diameter filter paper and suspended with an insect pin from the cap-liner. Each chemical was initially tested at 1 mg in the one liter bottle then at 0.1 and 0.5 mg. Since 0.1 and 0.5 mg doses caused very low and 100% mortality respectively, the final test was carried out at 0.25 mg. Each chemical was tested with different termite colonies and replicated three times. The bottles were placed in the incubator. Mortality was recorded after 1, 2 and 3 days by quickly taking the glass Petri dish with the termites out of the bottle (with a pair of long forceps) and replacing it after removing the dead workers.

fire ants = assay: Vapor Toxicity Under Subterranean Conditions with fire ants; type: in vivo, Solenopsis invicta; settings: 25 mg, in 24 hours
Description: as §2
The same Vapor Toxicity Under Subterranean Conditions test as described in paragraph [0023] was conducted except that fire ants were employed instead of termites.

Row | Compound | efficacy against termites in soil and wood [1] | mortality of drywood and other termites (drywood termites) | also measured
1 | Cc1ccc(C(C)C)cc1 [p-cymene] | totally ineffective | high mortality | –
2 | C=C(C)C1CC=C(C)[C@@H](O)C1 (stereo partly shown) [carveol] | totally ineffective | high mortality | –
3 | CC(C)=CCCC(C)CC=O (stereo not shown) [citronellal] | totally ineffective | high mortality | –
4 | CC(C)=CCC/C(C)=C/CO [geraniol] | totally ineffective | high mortality | –
5 | CC(C)[C@@H]1CC[C@@H](C)C(=O)C1 [tetrahydro-l-carvone] | – | – | mortality to carpenter ants (carpenter ants): 100%; termites killed ([2]; 1 mg per liter volume, in 1 day): 100%; termites killed ([1]; in 24 hrs): 100%
6 | C=C(C)[C@@H]1CC[C@@H](C)C(=O)C1 [dihydro-l-carvone] | – | – | termites killed ([1]; in 48 hours): 100%
7 | CC(C)[C@@H]1CC[C@@H](C)C(=O)C1 [tetrahydro-d-carvone] | – | – | termites killed ([2]; 0.25 mg/liter volume, in 3 days): 75%; termites killed ([2]; 0.5 mg/liter volume, in 1 day): 100%; fire ants killed (fire ants): 100%
8 | CC(C)[C@@H]1CC[C@@H](C)C(=O)C1 [tetrahydrocarvone] | – | – | mortality ([1]; 25 mg dose, after 2 days, 100 worker termites in spruce slats covered with soil): 100%
